Laboratory results as given in PMC7217877, “N-AS-triggered SPMs are direct regulators of microglia in a model of Alzheimer’s disease” (Nature Communications, 2020).
“And” between values parts separate entries of the source, which are not always exact repeats. Identical values can stand only once.

Tests used:
neuron [1] = assay: immunofluorescence of ac-S565 and COX2 in primary cells; format: cell-based, C57BL/6 mice; details: Ab 10mM, replicates
Procedure: (§1) To confirm the generation and roles of N-AS in neurons, cells from E18 C57BL/6 mice were prepared as previously described. Cortices were dissected and then dissociated followed by incubation in papain (Worthington) at 37 °C for 15 min. Neurons were plated on poly-L-lysine-coated coverslips with neuronal culture medium, serum-free Neurobasal medium (Gibco) containing 2% B27 supplements (Gibco), 1 mM Glutamax supplement (Gibco), and 100 U ml^−1 streptomycin/ 100 U ml^−1 penicillin (Gibco) at 37 °C in a humidified atmosphere of 5% CO2. […] Primary astrocyte cultures were prepared from C57BL/6 mice as described previously. In brief, after removal of the meninges, postnatal day 7 (P7) mouse brain tissues were minced and incubated in a rocking water bath at 37 °C for 30 min in the presence of 0.25% trypsin-EDTA (Sigma-Aldrich). […] The human microglia treated with Aβ 1–42 and/or zileuton was incubated with N-AS (2.5 μM, 2 h, Sigma-Aldrich, 01912), and were analyzed for the generation and roles of N-AS.
Thioflavin S (Sigma-Aldrich) staining was carried out according to previously described procedures. […] The sections were analyzed with a laser-scanning confocal microscope (FV3000; Olympus) or with a BX51 microscope (Olympus). MetaMorph software (Molecular Devices) was used to quantification. Three-dimensional reconstruction of microglia was recorded and analyzed using IMARIS software (Bitplane)[11]. […]

neuron [2] = assay: sphingosine level in primary cells (UPLC); format: cell-based, C57BL/6 mice; details: Ab 10mM, replicates
Procedure: as §1
To quantify the sphingosine levels, the dried lipid extract was resuspended in 0.2% Igepal CA-630. […] The fluorescent sphingosine was monitored using a model 474 scanning fluorescence detector (Waters). Quantification of the sphingosine was calculated from sphingosine calibration curves using the Waters Millennium software.

“Ab: Aβ 1–42 (Invitrogen, 03112) used to induce an AD environment in cells” was tested, and the “ac-S565 with COX2, immunofluorescence quantification (Fig 3c)” value (neuron [1]) was 0.191 and 0.165 and 0.09731 and 0.2737 and 0.2437 and 0.2571 and the “sphingosine (Fig 3f)” value (neuron [2]) was 0.1262 and 0.1156 and 0.1288 and 0.1301 and 0.1222 and 0.1295.
